Test system: genotype A, "Long" strain RSV
Assay: RSV-A assay (CPE, ATPlite readout in Hep-2 cells)
Format: cell-based
Details: human respiratory syncytial virus, HEp-2, Hep-2 cells, genotype A "Long" strain RSV, MOI 0.1; read-out: Human RSV-A (“Long” strain) EC50
How it was run: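 Protection from RSV-induced cytopathic effect, measured as ATPlite luminescence after 5 days, gave EC50 values. Assay used genotype A Long strain at MOI 0.1 on Hep-2 cells seeded at 8,000/well in DMEM growth media with 10% FBS; compounds tested as 2-fold dilutions in duplicate.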

Row | EC50 [nM] | Structure (SMILES)
1 | < 200 | COc1cc(C(=O)NC[C@](O)(c2cc3c(c(-c4ccc(F)cc4)n2)OC[C@]3(C)C(=O)NCCC(C)(C)O)C(F)(F)F)cc2cccnc12 [Example 494]
2 | < 200 | CC(C)(O)CNC(=O)[C@@]1(C)COc2c1cc([C@@](O)(CNC(=O)c1cc(Cl)c3ncccc3c1)C(F)(F)F)nc2-c1ccc(F)cc1 [Example 496]
3 | < 200 | CC(C)(O)CNC(=O)[C@@]1(C)COc2c1cc([C@@](O)(CNC(=O)c1ccc3nc(N)oc3c1)C(F)(F)F)nc2-c1ccc(F)cc1 [Example 498]
4 | < 200 | Cc1cnc2c(OC3CC3)cc(C(=O)NC[C@](O)(c3cc4c(c(-c5ccc(F)cc5)n3)OC[C@]4(C)C(=O)NCC(C)(C)O)C(F)(F)F)cc2c1 [Example 499]
5 | < 200 | CC(C)(O)CNC(=O)[C@@]1(C)COc2c1cc([C@@](O)(CNC(=O)c1ccc3nc(N)sc3c1)C(F)(F)F)nc2-c1ccc(F)c(Cl)c1 [Example 500]
6 | < 200 | COc1cc(C(=O)NC[C@](O)(c2cc3c(c(-c4ccc(F)cc4)n2)OC[C@]3(C)C(=O)NCC(C)(C)O)C(F)(F)F)cc2sc(N)nc12 [Example 502]
7 | < 200 | COc1cc(C(=O)NC[C@](O)(c2cc3c(c(-c4ccc(F)c(C)c4)n2)OC[C@]3(C)C(=O)NCC(C)(C)O)C(F)(F)F)cc2cc(C)cnc12 [Example 503]
8 | > 200 | Cc1cc(-c2nc([C@@](O)(CNC(=O)c3cc(OC4CC4)c4ncccc4c3)C(F)(F)F)cc3c2OC[C@]3(C)C(=O)NCC(C)(C)O)ccc1F [Example 504]
9 | < 200 | Cc1cc(-c2nc([C@@](O)(CNC(=O)c3ccc4nc(N)sc4c3)C(F)(F)F)cc3c2OC[C@]3(C)C(=O)NCC(C)(C)O)ccc1F [Example 505]
10 | < 200 | CC(C)(O)CNC(=O)[C@@]1(C)COc2c1cc([C@@](O)(CNC(=O)c1cc(OCC(N)=O)c3ncccc3c1)C(F)(F)F)nc2-c1ccc(F)cc1 [Example 506]
11 | < 200 | Cc1cnc2c(OCC(N)=O)cc(C(=O)NC[C@](O)(c3cc4c(c(-c5ccc(F)cc5)n3)OC[C@]4(C)C(=O)NCC(C)(C)O)C(F)(F)F)cc2c1 [Example 507]
12 | > 200 | C#Cc1nc([C@@](O)(CNC(=O)c2ccc(OC3CC3)c(OC)c2)C(F)(F)F)cc2c1OC[C@]2(C)C(N)=O [Example 509]
13 | > 200 | COc1cc(C(=O)NC[C@](O)(c2cc3c(c(C#Cc4ccc(F)cc4)n2)OC[C@]3(C)C(N)=O)C(F)(F)F)ccc1OC1CC1 [Example 510]
14 | > 200 | COc1cc(C(=O)NC[C@](O)(c2cc3c(c(C#Cc4cc(F)c(F)c(F)c4)n2)OC[C@]3(C)C(N)=O)C(F)(F)F)ccc1OC1CC1 [Example 511]
15 | > 200 | COc1cc(C(=O)NC[C@](O)(c2cc3c(c(C#Cc4ccc(F)c(Cl)c4)n2)OC[C@]3(C)C(N)=O)C(F)(F)F)ccc1OC1CC1 [Example 512]
16 | > 200 | COc1cc(C(=O)NC[C@](O)(c2cc3c(c(C#Cc4cccc(Cl)c4F)n2)OC[C@]3(C)C(N)=O)C(F)(F)F)ccc1OC1CC1 [Example 513]
17 | > 200 | COc1cc(C(=O)NC[C@](O)(c2cc3c(c(C#Cc4ccc(Cl)cc4F)n2)OC[C@]3(C)C(N)=O)C(F)(F)F)ccc1OC1CC1 [Example 514]
18 | > 200 | COc1cc(C(=O)NC[C@](O)(c2cc3c(c(C#Cc4ccccc4)n2)OC[C@]3(C)C(N)=O)C(F)(F)F)ccc1OC1CC1 [Example 515]
19 | > 200 | COc1cc(C(=O)NC[C@](O)(c2cc3c(c(C#Cc4cccc(F)c4)n2)OC[C@]3(C)C(N)=O)C(F)(F)F)ccc1OC1CC1 [Example 516]
20 | > 200 | COc1cc(C(=O)NC[C@](O)(c2cc3c(c(-c4cn(-c5ccc(F)cc5)nn4)n2)OC[C@]3(C)C(N)=O)C(F)(F)F)ccc1OC1CC1 [Example 517]
21 | < 200 | C[C@]1(C(N)=O)COc2c1cc([C@@](O)(CNC(=O)c1ccc3ncc(C4CC4)cc3c1)C(F)(F)F)nc2-c1ccc(F)cc1 [Example 525]
22 | > 200 | C[C@](F)(CNC(=O)c1cc(OC2CC2)c2ncccc2c1)c1cc2c(c(-c3ccc(F)cc3)n1)OC[C@]2(C)C(N)=O [Example 545]
23 | < 200 | Cc1cnc2c(NC(=O)C(F)(F)F)cc(C(=O)NC[C@](O)(c3cc4c(c(-c5ccc(F)cc5)n3)OC[C@]4(C)C(N)=O)C(F)(F)F)cc2c1 [Example 554]
24 | < 200 | C[C@]1(C(=O)N2CCC(C#N)C2)COc2c1cc([C@@](O)(CNC(=O)c1cc(OC3CC3)c3ncccc3c1)C(F)(F)F)nc2-c1ccc(F)cc1 (stereo partly shown) [Example 555]
25 | < 200 | C[C@]1(C(=O)N2CCC(=O)C2)COc2c1cc([C@@](O)(CNC(=O)c1cc(OC3CC3)c3ncccc3c1)C(F)(F)F)nc2-c1ccc(F)cc1 [Example 556]
26 | < 200 | Cc1cnc2c(NC(=O)NC3COC3)cc(C(=O)NC[C@](O)(c3cc4c(c(-c5ccc(F)cc5)n3)OC[C@]4(C)C(N)=O)C(F)(F)F)cc2c1 [Example 559]
27 | < 200 | C[C@]1(C(N)=O)COc2c1cc([C@@](O)(CNC(=O)c1cc(OC3CC3)c3[nH]c(=O)ccc3c1)C(F)(F)F)nc2-c1ccc(F)cc1 [Example 584]
28 | > 200 | C[C@]1(C(N)=O)COc2c1cc([C@@](O)(CNC(=O)c1cnn3cccnc13)C(F)(F)F)nc2-c1ccc(F)cc1 [Example 585]

Row | EC50 [nM] | Structure (SMILES)
29 | > 200 | COc1ccc2[nH]nc(C(=O)NC[C@](O)(c3cc4c(c(-c5ccc(F)cc5)n3)OC[C@]4(C)C(N)=O)C(F)(F)F)c2c1 [Example 586]
30 | > 200 | C[C@]1(C(N)=O)COc2c1cc([C@@](O)(CNC(=O)c1ccc3cn[nH]c3c1)C(F)(F)F)nc2-c1ccc(F)cc1 [Example 587]
31 | > 200 | C[C@]1(C(N)=O)COc2c1cc([C@@](O)(CNC(=O)c1cc3cc(Cl)ccc3[nH]1)C(F)(F)F)nc2-c1ccc(F)cc1 [Example 589]
32 | < 200 | Cn1ncc2cc(C(=O)NC[C@](O)(c3cc4c(c(-c5ccc(F)cc5)n3)OC[C@]4(C)C(N)=O)C(F)(F)F)ccc21 [Example 591]
33 | > 200 | COc1ccc(CC(=O)NC[C@](O)(c2cc3c(c(-c4ccc(F)cc4)n2)OC[C@]3(C)C(N)=O)C(F)(F)F)cc1OC [Example 592]
34 | > 200 | COc1ccc(CC(=O)NC[C@](O)(c2cc3c(c(-c4ccc(F)cc4)n2)OC[C@]3(C)C(N)=O)C(F)(F)F)cc1 [Example 593]
35 | > 200 | COc1cccc(CC(=O)NC[C@](O)(c2cc3c(c(-c4ccc(F)cc4)n2)OC[C@]3(C)C(N)=O)C(F)(F)F)c1 [Example 594]
36 | < 200 | C[C@]1(C(N)=O)COc2c1cc([C@@](O)(CNC(=O)c1cc3c(F)cc(F)cc3[nH]1)C(F)(F)F)nc2-c1ccc(F)cc1 [Example 596]
37 | < 200 | C[C@]1(C(N)=O)COc2c1cc([C@@](O)(CNC(=O)c1cc3c(F)cc(Cl)cc3[nH]1)C(F)(F)F)nc2-c1ccc(F)cc1 [Example 597]
38 | < 200 | COc1ccc2[nH]c(C(=O)NC[C@](O)(c3cc4c(c(-c5ccc(F)cc5)n3)OC[C@]4(C)C(N)=O)C(F)(F)F)cc2c1 [Example 598]
39 | > 200 | C[C@]1(C(N)=O)COc2c1cc([C@@](O)(CNC(=O)c1cc3ccccc3[nH]1)C(F)(F)F)nc2-c1ccc(F)cc1 [Example 599]
40 | > 200 | C[C@]1(C(N)=O)COc2c1cc([C@@](O)(CNC(=O)c1cc3c(F)cccc3[nH]1)C(F)(F)F)nc2-c1ccc(F)cc1 [Example 601]
41 | > 200 | C[C@]1(C(N)=O)COc2c1cc([C@@](O)(CNC(=O)c1cc3c(Cl)cccc3[nH]1)C(F)(F)F)nc2-c1ccc(F)cc1 [Example 602]
42 | > 200 | COc1cccc2cc(C(=O)NC[C@](O)(c3cc4c(c(-c5ccc(F)cc5)n3)OC[C@]4(C)C(N)=O)C(F)(F)F)[nH]c12 [Example 603]
43 | < 200 | C[C@]1(C(N)=O)COc2c1cc([C@@](O)(CNC(=O)c1cc3ccc(F)cc3[nH]1)C(F)(F)F)nc2-c1ccc(F)cc1 [Example 604]
44 | < 200 | C[C@]1(C(N)=O)COc2c1cc([C@@](O)(CNC(=O)c1cc3ccc(Cl)cc3[nH]1)C(F)(F)F)nc2-c1ccc(F)cc1 [Example 605]
45 | > 200 | C[C@]1(C(N)=O)COc2c1cc([C@@](O)(CNC(=O)c1ccc3c(c1)OCC(=O)N3)C(F)(F)F)nc2-c1ccc(F)cc1 [Example 606]
46 | < 200 | C[C@]1(C(N)=O)COc2c1cc([C@@](O)(CNC(=O)c1ccc3c(c1)NCCO3)C(F)(F)F)nc2-c1ccc(F)cc1 [Example 607]
47 | < 200 | COc1cc(C(=O)NC[C@](O)(c2cc3c(c(-c4ccc(F)cc4)n2)OC[C@]3(C)C(N)=O)C(F)(F)F)cc2cc3c(nc12)CCCC3 [Example 612]
48 | > 200 | C[C@]1(C(N)=O)COc2c1cc([C@@](O)(CNC(=O)c1cc(Oc3ncccn3)c3ncccc3c1)C(F)(F)F)nc2-c1ccc(F)cc1 [Example 614]
49 | < 200 | COc1cc(C(=O)NC[C@](O)(c2cc3c(c(-c4ccc(F)cc4)n2)OC[C@]3(C)C(N)=O)C(F)(F)F)cc2cc(Br)cnc12 [Example 618]
50 | < 200 | Cc1cnc2c(NC(=O)C3(C)COC3)cc(C(=O)NC[C@](O)(c3cc4c(c(-c5ccc(F)cc5)n3)OC[C@]4(C)C(N)=O)C(F)(F)F)cc2c1 [Example 620]
51 | < 200 | Cc1cnc2c(NC(=O)Nc3cccnc3)cc(C(=O)NC[C@](O)(c3cc4c(c(-c5ccc(F)cc5)n3)OC[C@]4(C)C(N)=O)C(F)(F)F)cc2c1 [Example 625]
52 | > 200 | Cc1ccc2cc(C(=O)NC[C@](O)(c3cc4c(c(-c5ccc(F)cc5)n3)OC[C@]4(C)C(N)=O)C(F)(F)F)cc(NC(=O)NC3CC3)c2n1 [Example 628]
53 | < 200 | Cc1cnc2c(OCC(F)F)cc(C(=O)NC[C@](O)(c3cc4c(c(-c5ccc(F)cc5)n3)OC[C@]4(C)C(N)=O)C(F)(F)F)cc2c1 [Example 629]
54 | < 200 | Cc1cnc2c(NC(=O)c3ncc(C)o3)cc(C(=O)NC[C@](O)(c3cc4c(c(-c5ccc(F)cc5)n3)OC[C@]4(C)C(N)=O)C(F)(F)F)cc2c1 [Example 630]
55 | < 200 | Cc1cnc2c(NC(=O)NNC3CC3)cc(C(=O)NC[C@](O)(c3cc4c(c(-c5ccc(F)cc5)n3)OC[C@]4(C)C(N)=O)C(F)(F)F)cc2c1 [Example 631]

Source: patent US11505558B1, “Antiviral heterocyclic compounds” (Enanta Pharmaceuticals, Inc., priority 2019, dated 2022)
